In ChEMBL document CHEMBL1201862, “PubChem BioAssay data set” (2004):
Active and inactive are the calls of the source.

Tests used:
[1] = biological target: T1, Heat shock factor protein 1 (Mus musculus, UniProt P38532); test: decrease of HSF1-responsive luciferase luminescence – cell-based, NIH3T3, dose retest, confirmation (AID 2382); assay type: functional;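 note: NIH3T3 fibroblasts with HSF1-driven luciferase reporter stressed by proteasome inhibitor MG132; luminescence from HSF1-driven luciferase expression after 8 hours of MG132 stress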
T1 sequence (P38532 whole entry): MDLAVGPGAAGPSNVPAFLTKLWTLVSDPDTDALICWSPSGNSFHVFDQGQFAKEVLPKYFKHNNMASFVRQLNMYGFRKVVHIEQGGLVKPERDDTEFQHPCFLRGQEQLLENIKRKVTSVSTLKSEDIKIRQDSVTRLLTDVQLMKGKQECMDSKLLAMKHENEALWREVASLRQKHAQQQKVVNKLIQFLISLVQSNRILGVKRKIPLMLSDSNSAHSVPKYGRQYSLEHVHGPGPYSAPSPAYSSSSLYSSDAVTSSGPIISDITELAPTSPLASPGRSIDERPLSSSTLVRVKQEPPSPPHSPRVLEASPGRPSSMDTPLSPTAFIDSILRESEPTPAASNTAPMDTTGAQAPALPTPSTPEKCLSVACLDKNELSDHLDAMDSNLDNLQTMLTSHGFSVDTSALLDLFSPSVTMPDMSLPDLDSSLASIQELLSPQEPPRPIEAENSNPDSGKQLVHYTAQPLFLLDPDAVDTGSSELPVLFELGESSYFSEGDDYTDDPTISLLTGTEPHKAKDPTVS

Nonstructural protein 1 = Nonstructural protein 1 (Influenza A virus, UniProt Q194T2); assay type: functional, Influenza A virus (A/California/07/2009(H1N1))
[2] = biological target: Long-chain-fatty-acid--AMP ligase FadD28 (Mycobacterium tuberculosis, UniProt P9WQ59); test: Fluorescence polarization aasay to screen for inhibitors that compete for the binding of FadD28 to a bisubstrate Measured in Biochemical System Using Plate Reader - 2147-01_Inhibitor_Dose_CherryPick_Activity.; assay type: functional, Mycobacterium tuberculosis H37Rv
Aminopeptidase N = biological target: T2, Aminopeptidase N (Plasmodium falciparum FcB1/Columbia, UniProt O96935); test: malaria alanyl aminopeptidase activity blockers – biochemical, fluorogenic H-Leu-NHMec substrate, 1536-well (AID 1445); set-up: species or system Plasmodium falciparum 3D7, 3D7
T2 sequence (O96935 whole entry): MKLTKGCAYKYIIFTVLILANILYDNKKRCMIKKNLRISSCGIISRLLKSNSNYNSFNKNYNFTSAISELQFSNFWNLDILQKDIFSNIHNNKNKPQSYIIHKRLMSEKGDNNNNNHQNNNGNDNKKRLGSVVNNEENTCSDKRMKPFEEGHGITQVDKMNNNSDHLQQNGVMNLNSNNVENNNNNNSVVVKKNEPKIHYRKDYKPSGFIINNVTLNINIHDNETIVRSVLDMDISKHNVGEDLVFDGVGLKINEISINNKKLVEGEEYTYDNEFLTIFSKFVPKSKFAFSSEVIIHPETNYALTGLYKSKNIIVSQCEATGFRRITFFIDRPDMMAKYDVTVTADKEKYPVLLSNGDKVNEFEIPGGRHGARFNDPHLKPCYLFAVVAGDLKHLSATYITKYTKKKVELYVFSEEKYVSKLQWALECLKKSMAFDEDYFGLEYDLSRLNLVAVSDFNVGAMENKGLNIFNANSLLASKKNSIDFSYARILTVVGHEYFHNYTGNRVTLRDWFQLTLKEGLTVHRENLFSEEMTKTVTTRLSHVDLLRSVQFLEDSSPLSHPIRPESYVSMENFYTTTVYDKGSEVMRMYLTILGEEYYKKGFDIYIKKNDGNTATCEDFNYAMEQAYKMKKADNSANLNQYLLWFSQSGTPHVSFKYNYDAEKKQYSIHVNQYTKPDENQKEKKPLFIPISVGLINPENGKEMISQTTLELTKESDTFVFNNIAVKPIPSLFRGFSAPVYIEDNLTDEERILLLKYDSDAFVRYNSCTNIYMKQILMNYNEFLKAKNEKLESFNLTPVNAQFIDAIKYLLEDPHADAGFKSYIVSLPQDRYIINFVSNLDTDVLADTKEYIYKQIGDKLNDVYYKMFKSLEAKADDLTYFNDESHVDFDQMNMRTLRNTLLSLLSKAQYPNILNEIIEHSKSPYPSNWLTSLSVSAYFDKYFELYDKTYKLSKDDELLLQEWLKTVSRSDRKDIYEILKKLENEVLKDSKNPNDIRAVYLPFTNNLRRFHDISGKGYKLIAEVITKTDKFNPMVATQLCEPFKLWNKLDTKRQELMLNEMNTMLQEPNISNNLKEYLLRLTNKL

Vero = test: viability loss in Vero cells – cell-based, plate reader, cherry-pick samples, cytotoxicity control, dose response (AID 687020); assay type: functional; details: Chlorocebus sabaeus
A549 = test: viability loss in A549 cells – cell-based, plate reader, cherry-pick samples, cytotoxicity control, dose response (AID 687028); assay type: functional; details: Homo sapiens
BJ [3] = test: BJ-TERT fibroblast viability loss – cell-based, RAS-independent, luminescence, dose response (AID 1933); assay type: functional; details: Homo sapiens
[4] = NIH3T3 cell viability loss – ATP luminescence, mouse fibroblasts, counter-screen, dose response (AID 2010); assay type: functional, cell-based;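 note: cells exposed to compound for about 90 hours before reading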
[5] = biological target: T3, DNA repair protein RAD52 homolog (Homo sapiens, UniProt P43351); assay type: functional, biochemical
T3 sequence (P43351 whole entry): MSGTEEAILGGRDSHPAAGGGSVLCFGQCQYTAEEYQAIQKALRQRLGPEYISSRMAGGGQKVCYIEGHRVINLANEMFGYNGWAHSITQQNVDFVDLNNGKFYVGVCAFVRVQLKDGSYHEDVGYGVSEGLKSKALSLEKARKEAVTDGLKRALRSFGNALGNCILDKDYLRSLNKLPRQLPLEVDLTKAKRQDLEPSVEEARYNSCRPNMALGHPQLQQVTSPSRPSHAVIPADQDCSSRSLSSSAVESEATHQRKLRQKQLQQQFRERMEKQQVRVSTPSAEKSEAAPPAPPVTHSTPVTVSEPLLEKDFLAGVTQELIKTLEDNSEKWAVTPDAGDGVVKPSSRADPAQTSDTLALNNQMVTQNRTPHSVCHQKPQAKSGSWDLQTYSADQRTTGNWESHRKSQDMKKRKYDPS

[6] = general cell-killing toxicity readout – plate reader, dry powder samples, cytotoxicity control for PAX8 inhibitor project, dose response (AID 743021); assay type: functional, cell-based
[7] = biological target: Neurotensin receptor type 1 (Homo sapiens, UniProt P30989); assay type: functional;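 note: Image-based confirmatory dose-response assay measuring agonist activity at NTR1; NTR1-expressing U2OS osteosarcoma cells imaged for beta-arrestin GFP spot formation; agonist potency where compounds increase beta-arrestin recruitment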
INS1 = test: INS-1E survival protection against cytokine death – cell-based, luminescence, retest, dose response (AID 449756); assay type: functional; details: Rattus norvegicus;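 note: cell death triggered by IL-1 beta plus TNF-alpha plus IFN-gamma mixture; protective hits raise ATP signal compared with cytokine alone wells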
[8] = viability loss in HeLa cells – cytotoxicity control for MgcRacGAP inhibitor project, dose response (AID 624300); assay type: functional
BJ [9] = test: cells; assay type: functional, cell-based; details: Homo sapiens
[10] = DRD fibroblast viability loss – cell-based, non-viral oncogenic, luminescence, dose response (AID 1934); assay type: functional; details: Homo sapiens
[11] = Trypanosoma cruzi growth suppression in host cells – NIH3T3 host cells, beta-gal luminescence, confirmation (AID 2044); assay type: functional, cell-based;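 note: intracellular parasites grown in NIH/3T3 mouse fibroblasts as host cells; luminescent beta-galactosidase reporter signal from transgenic T. cruzi replicating inside host cells; inhibitors lower the luminescence signal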
[12] = biological target: T4, Rac GTPase-activating protein 1 (Homo sapiens, UniProt Q9H0H5); test: blockers of MgcRacGAP-driven Rac1 GTP hydrolysis – biochemical, ADP Hunter fluorescence, primary and confirmatory, confirmation (AID 624330); assay type: functional
T4 sequence (Q9H0H5 whole entry): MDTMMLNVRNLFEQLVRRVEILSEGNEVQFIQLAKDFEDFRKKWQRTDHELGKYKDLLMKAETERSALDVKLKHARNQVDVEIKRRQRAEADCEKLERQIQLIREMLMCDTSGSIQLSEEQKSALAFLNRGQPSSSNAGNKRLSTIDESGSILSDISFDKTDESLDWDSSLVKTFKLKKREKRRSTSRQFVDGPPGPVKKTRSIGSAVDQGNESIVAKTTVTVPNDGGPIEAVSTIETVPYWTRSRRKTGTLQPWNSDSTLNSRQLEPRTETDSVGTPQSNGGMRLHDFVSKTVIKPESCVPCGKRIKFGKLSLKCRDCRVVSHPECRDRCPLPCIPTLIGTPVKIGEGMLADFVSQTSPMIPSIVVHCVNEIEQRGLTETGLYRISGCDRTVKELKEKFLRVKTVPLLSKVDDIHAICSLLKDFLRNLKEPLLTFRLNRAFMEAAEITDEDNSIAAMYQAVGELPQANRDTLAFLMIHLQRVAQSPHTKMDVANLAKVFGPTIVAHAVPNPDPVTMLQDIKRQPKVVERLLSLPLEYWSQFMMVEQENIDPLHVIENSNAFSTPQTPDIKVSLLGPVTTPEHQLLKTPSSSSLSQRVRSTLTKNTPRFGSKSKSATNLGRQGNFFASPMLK

Paired box protein Pax-8 = Paired box protein Pax-8 (Homo sapiens, UniProt Q06710); test: PAX8 transcriptional activity inhibition in RMG-I – RMG-I cells, luciferase, cherry-pick, dose response (AID 687027); assay type: functional, cell-based;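 note: luciferase reporter driven by Pax8 target thyroperoxidase promoter measured by SteadyGlo luminescence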
BJ [13] = test: BJ-TERT-LT-ST fibroblast viability loss – cell-based, RAS-independent, luminescence, dose response (AID 1935); assay type: functional; details: Homo sapiens;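 note: BJ fibroblasts immortalized with TERT plus LT and ST oncogenes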
[14] = HGIII-sPLA2 enzyme inhibition potency – biochemical, QFRET, IC50, dose response (AID 743457);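 note: green fluorescence rise as the enzyme cleaves BODIPY PC-A2 in liposomes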
[15] = biological target: Matrix metalloproteinase-14 (Homo sapiens, UniProt P50281); test: Dose Response confirmation of uHTS hits for a small molecule inhibitors of MT1-MMP activation in a fluorescence assay set 1.; assay type: functional
[16] = biological target: T5, Probable nicotinate-nucleotide adenylyltransferase (Staphylococcus aureus (strain N315), UniProt P65502); assay type: functional, Staphylococcus aureus subsp. aureus N315;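 for IC50 Mean: confirmatory dose-response retesting of NadD inhibitor hits first found in an ultra-high-throughput screen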
[17] = biological target: T5, Probable nicotinate-nucleotide adenylyltransferase; assay type: functional, Staphylococcus aureus subsp. aureus N315; details: read-out: IC50_Mean
[18] = biological target: T6, Sentrin-specific protease 1 (Homo sapiens, UniProt Q9P0U3); test: Dose response confirmation of small molecule inhibitors of the catalytic domain of the SUMO protease, SENP1 in a FRET assay.; assay type: functional; details: read-out: IC50_Mean
[19] = biological target: T6, Sentrin-specific protease 1; test: SENP1 catalytic domain blockers, concentration series – biochemical, kinetic FRET, dose response (AID 651697); assay type: functional; details: read-out: IC50_Mean

Nonstructural protein 1, sequence (Q194T2 whole entry): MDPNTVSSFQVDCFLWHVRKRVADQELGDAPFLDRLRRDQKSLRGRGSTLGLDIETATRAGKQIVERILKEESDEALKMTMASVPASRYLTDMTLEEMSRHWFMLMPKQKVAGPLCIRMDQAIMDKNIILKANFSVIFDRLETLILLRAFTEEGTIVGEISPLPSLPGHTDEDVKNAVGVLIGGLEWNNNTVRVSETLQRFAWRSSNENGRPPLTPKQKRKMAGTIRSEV
T5 sequence (P65502 whole entry): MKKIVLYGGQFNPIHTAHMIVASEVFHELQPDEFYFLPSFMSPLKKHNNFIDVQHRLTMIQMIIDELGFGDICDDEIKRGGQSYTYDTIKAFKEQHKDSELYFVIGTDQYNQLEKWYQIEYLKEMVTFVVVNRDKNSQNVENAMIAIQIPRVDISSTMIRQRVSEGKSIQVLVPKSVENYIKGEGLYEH
T6 sequence (Q9P0U3 whole entry, the tested form may be a part): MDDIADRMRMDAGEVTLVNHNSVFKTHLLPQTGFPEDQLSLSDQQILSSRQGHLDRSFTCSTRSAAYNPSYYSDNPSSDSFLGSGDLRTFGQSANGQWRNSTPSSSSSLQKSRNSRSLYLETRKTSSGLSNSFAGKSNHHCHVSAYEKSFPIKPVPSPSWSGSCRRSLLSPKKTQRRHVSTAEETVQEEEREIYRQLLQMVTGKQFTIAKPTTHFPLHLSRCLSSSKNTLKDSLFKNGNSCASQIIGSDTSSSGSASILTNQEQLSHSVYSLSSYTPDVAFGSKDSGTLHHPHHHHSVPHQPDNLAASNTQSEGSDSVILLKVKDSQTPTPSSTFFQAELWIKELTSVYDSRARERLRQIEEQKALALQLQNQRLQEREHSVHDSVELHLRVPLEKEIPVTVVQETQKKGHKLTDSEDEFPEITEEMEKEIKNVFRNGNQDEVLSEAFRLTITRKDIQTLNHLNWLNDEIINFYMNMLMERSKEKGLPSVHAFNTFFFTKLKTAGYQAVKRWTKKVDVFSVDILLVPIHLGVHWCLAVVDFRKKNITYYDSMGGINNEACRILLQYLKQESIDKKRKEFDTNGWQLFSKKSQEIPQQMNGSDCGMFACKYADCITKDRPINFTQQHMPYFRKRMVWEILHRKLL
Paired box protein Pax-8, sequence (Q06710 whole entry): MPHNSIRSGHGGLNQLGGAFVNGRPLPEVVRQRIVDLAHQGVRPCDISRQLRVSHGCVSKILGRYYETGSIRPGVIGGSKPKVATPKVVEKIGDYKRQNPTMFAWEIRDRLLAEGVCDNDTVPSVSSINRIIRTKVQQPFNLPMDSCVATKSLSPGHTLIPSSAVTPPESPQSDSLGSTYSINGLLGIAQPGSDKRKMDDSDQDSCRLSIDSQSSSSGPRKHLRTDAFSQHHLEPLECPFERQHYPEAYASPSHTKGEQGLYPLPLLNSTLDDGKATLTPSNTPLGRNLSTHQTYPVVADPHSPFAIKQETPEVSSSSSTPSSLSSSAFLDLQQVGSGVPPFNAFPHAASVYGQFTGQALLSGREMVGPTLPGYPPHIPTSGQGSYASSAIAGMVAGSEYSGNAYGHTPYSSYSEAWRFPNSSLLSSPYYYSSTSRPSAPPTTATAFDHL
Neurotensin receptor type 1, sequence (P30989 whole entry): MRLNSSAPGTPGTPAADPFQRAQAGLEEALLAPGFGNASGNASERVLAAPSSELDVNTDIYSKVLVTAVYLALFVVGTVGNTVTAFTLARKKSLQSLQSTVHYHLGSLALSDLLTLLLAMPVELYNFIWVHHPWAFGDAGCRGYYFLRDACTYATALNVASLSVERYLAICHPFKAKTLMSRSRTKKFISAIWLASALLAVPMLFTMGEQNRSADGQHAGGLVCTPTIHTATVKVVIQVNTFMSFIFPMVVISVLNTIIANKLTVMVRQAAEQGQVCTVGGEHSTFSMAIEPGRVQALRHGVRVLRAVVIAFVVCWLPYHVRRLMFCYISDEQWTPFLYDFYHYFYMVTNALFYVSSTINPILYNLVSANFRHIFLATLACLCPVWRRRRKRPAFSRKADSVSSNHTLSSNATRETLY
Long-chain-fatty-acid--AMP ligase FadD28, sequence (P9WQ59 whole entry): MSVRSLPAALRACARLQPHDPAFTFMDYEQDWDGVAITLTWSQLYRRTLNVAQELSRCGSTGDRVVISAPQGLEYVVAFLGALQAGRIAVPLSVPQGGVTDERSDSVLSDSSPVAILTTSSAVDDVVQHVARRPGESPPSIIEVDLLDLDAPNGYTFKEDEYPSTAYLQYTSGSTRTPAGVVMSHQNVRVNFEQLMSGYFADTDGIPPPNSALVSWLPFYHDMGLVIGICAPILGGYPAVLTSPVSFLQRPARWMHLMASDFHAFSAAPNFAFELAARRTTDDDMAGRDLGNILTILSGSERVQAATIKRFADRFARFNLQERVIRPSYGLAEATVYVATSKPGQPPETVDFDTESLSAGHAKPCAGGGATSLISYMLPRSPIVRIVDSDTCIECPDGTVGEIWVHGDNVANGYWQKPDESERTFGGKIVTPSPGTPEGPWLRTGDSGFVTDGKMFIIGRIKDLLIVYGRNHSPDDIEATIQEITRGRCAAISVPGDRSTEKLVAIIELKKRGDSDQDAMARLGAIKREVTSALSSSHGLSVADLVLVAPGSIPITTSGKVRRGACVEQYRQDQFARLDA

CCOc1ccc(N2C(=O)/C(=C\NNc3nnc(C)c(O)n3)c3ccccc3C2=O)cc1
EC50 [1]: > 195 µM (not active)
IC50 (Nonstructural protein 1): 5.02 µM (active)
AC50 [2]: 64.9 µM (active)
IC50 (Aminopeptidase N): 20.9 µM (active)

O=C(OCc1cn([C@H]2CN(C(=O)C3CCCCC3)[C@@H](c3ccccc3)C[C@@H]2O)nn1)c1ccccc1
AC50 (Vero): 20.2 µM (active)
AC50 (A549): 16.1 µM (active)

CC(C)Nc1ccc(Nc2ccnc3cc4ccccc4cc23)cc1
EC50 (BJ [3]): 3.71 µM (inconclusive)
EC50 [4]: 6.48 µM (active)
AC50 [5]: 0.782 µM (active)
AC50 [6]: 51.2 µM (active)
EC50 [7]: 12.2 µM (active)
AC50 (INS1): 3.15 µM (active)
CC50 [8]: 17.2 µM (active)
EC50 (BJ [9]): 9.05 µM (inconclusive)
EC50 [10]: 4.73 µM (active)
EC50 [11]: 0.632 µM (active)
IC50 [12]: 20 µM (active)
AC50 (Paired box protein Pax-8): 7.04 µM (active)
EC50 (BJ [13]): 5.35 µM (inconclusive)

CC1(C)CCCN(C(=O)c2ccc3c(c2NCCO)C(=O)c2ccccc2C3=O)C1
IC50 [14]: > 122 µM (inactive)
IC50 (Nonstructural protein 1): 15.2 µM (active)
IC50 [15]: 17.2 µM (active)

Oc1ccc(C[C@H]2CNC(=S)N2CC2CCCN2C[C@H](Cc2ccccc2)N2C[C@H](Cc3ccc(O)cc3)N(CCc3ccccc3)C2=S)cc1 (stereo partly drawn)
IC50 [16]: 17 µM (active)
IC50 [17]: 30.5 µM (active)
AC50 (Paired box protein Pax-8): 11.5 µM (active)

C/C(=N\NC(=O)c1ccccc1F)c1ccc2c(c1)Nc1ccccc1S2
IC50 [18]: 10.5 µM (active)
IC50 [19]: 11.2 µM (active)
IC50 [12]: 54.7 µM (active)
